10 compounds from patent EP0768085A1, “ANTIBACTERIAL AGENT” (DAIICHI PHARMACEUTICAL CO., LTD., priority 1994, dated 1996) can be followed below.

Holding throughout (type): cell-based
The test system of experiment [1] is Streptococcus aureus (TI-1). In words: Antibacterial activity (IC), agar as in Example 8 (Example 16, Table 49). The settings on record: 18 h. Here is the method: (§1) The antibacterial action was evaluated by the inhibitory concentration (hereinafter abbreviated as IC) at which propagation of the bacteria cultured at 37°C for 18 hours was inhibited. Inhibition was determined by the turbidity of the medium. The expressions "IC≤100", "≤10", and "≤1" indicate that MIC-equivalent values obtained at the succesive […] dilution of the sample are 100-10 µg/ml, 10-1 µg/ml, and not more than 1 µg/ml, respectively. […] (In the subsequent Examples, the same rule applies correspondingly.) Table 39
(§2) A suitable amount of a sample was dissolved in dimethylsulfoxide (DMSO), after which the resulting solution was diluted with the same amount of sterilized distilled water to prepare a bulk sample of 1,000 µg/ml. Separately, a bacterial liquid for the test (methicillin-resistant Staphylococcus aureus (MRSA) isolated from humans) which had been cultured in Mueller-Hinton broth (product of DIFCO) was prepared and inoculated to a Mueller-Hinton agar (product of DIFCO) containing the sample so that the final inoculation amount of 10^6 CFU/ml was achieved. The final concentrations of the samples were 100, 10, and 1 µg/ml.
(§3) After culturing at 37°C for 18 hours, the antibacterial activity was evaluated in terms of IC in a manner similar to that described in Example 4.
In a manner similar to that described in Example 8, antibacterial activity of the invention compound was determined. The bacterium used for the test was […] aureus (TI-1).

Experiment [2] deals with Pasteurella multocida (Kobe-6). In words: Antibacterial activity (IC), agar as in Example 8 (Example 17, Table 50). The settings on record: 18 h, origin pig. As for the experimental part:
as §1, §2, §3
In a manner similar to that described in Example 8, antibacterial activity of the invention compound was determined. The bacterium used for the test was Pasteurella Kobe-6 (origin: pig, Pasteurella multocida).

In experiment [3] the test system is methicillin-resistant Staphylococcus aureus (MRSA) from humans. Description: Antibacterial activity (IC), agar as in Example 8 (Example 19, Table 52). Conditions: 18 h. Here is the method:
as §1, §2, §3
In a manner similar to that described in Example 8, antibacterial activity of a variety of ketonitrile derivatives shown in Table 52 was measured. The bacterium used for the test was methicillin-resistant Staphylococcus aureus (MRSA) from humans.

Experiment [4] deals with Staphylococcus aureus (209-P). Description: Antibacterial activity (IC), agar as in Example 8 (Example 15, Table 48). The settings on record: 18 h. As for the experimental part: as §1, §2, §3
The bacterium used for the test was Staphylococcus aureus (209-P).

The test system of another experiment is Pasteurella from fish. Description: Antibacterial activity (IC), agar as in Example 8, media with 1.5% NaCl, 25°C (Example 20, Tables 53-55). The settings on record: for MIC: Pasteurella piscicida KP94-02. As for the experimental part: as §1, §2, §3
(§4) In a manner similar to that described in Example 8, antibacterial activity of a variety of ketonitrile derivatives shown in Tables 53-55 was measured. The bacteria used for the test were Enterococcus and Pasteurella from fish. The culture conditions were such that the media contained 1.5% NaCl, and the culture temperature was 25°C.

In the next experiment the test system is Enterococcus from fish. Described as above. Conditions: for MIC: Enterococcus Seriolicida SE94-002. Here is the method: as §1, §2, §3, §4
The mark [5] stands for this setting: Enterococcus Seriolicida KG86050.
The mark [6] stands for this setting: Enterococcus Seriolicida MS89060.
The mark [7] stands for this setting: Enterococcus Seriolicida MS89064.
The mark [8] stands for this setting: Enterococcus Seriolicida MS89066.
[9] abbreviates: Enterococcus Seriolicida MS89068.
Setting [10] is: Enterococcus Seriolicida SE94-001.
The mark [11] stands for this setting: Enterococcus Seriolicida SE94-003.
Setting [12] is: Enterococcus Seriolicida SE94-004.
Setting [13] is: Enterococcus Seriolicida SE94-005.

The structures appear in SMILES notation. ≈ marks a conversion by molar mass, not a printed value. Bounds are passed on as bounds.

In general, MIC refers to the lowest concentration found to suppress growth. A higher MIC goes with weaker potency. Take `CC(Oc1cccc(Oc2ccc(C(F)(F)F)cc2Cl)c1)C(=O)C(C#N)c1cccc(Br)c1` (stereo not drawn) [Compound No. 104, 2-(3-bromophenyl)-4-[3-(2-chloro-4-trifluoromethylphenoxy)phenoxy]-3-oxopentanonitrile]: the MIC in experiment [1] is ≤ 1 µg/mL; in experiment [2], 1 to 10 µg/mL (≈ 1.86 to 18.6 µM); in experiment [3] (MRSA strain 891179) it was 1 to 10 µg/mL (≈ 1.86 to 18.6 µM); in experiment [3] (MRSA strain 891185), 1 to 10 µg/mL (≈ 1.86 to 18.6 µM); in experiment [3] (MRSA strain 891187), 1 to 10 µg/mL (≈ 1.86 to 18.6 µM); in experiment [3] (MRSA strain 891192), 1 to 10 µg/mL (≈ 1.86 to 18.6 µM). The MIC in experiment [3] (MRSA strain 900048) is 1 to 10 µg/mL (≈ 1.86 to 18.6 µM); in experiment [3] (MRSA strain 900056) it was 1 to 10 µg/mL (≈ 1.86 to 18.6 µM); in experiment [4], ≤ 1 µg/mL.
Consider `CC(Oc1cccc(Oc2ccc(C(F)(F)F)cc2Cl)c1)C(=O)C(C#N)c1cccc(C(F)(F)F)c1` (stereo not drawn) [Compound No. 106, 4-[3-(2-chloro-4-trifluoromethylphenoxy)phenoxy]-3-oxo-2-(3-trifluoromethylphenyl)pentanonitrile], for which the MIC was 1 to 10 µg/mL (≈ 1.89 to 18.9 µM) in experiment [1]; 10 to 100 µg/mL (≈ 18.9 to 189 µM) against Pasteurella from fish; 1 to 10 µg/mL (≈ 1.89 to 18.9 µM) against Enterococcus from fish; 10 to 100 µg/mL (≈ 18.9 to 189 µM) in experiment [2]; 1 to 10 µg/mL (≈ 1.89 to 18.9 µM) in experiment [4]. Also, the IC in the experiment on Pasteurella from fish (Pasteurella piscicida KP94-04) was ≤100 (MIC-equivalent values obtained at the succesive 2-fold dilution of the sample are 100-10 µg/ml); with Pasteurella from fish (Pasteurella piscicida KP94-05) it was ≤100 (MIC-equivalent values obtained at the succesive 2-fold dilution of the sample are 100-10 µg/ml); in the experiment with Pasteurella from fish (Pasteurella piscicida KP94-06) it was ≤100 (MIC-equivalent values obtained at the succesive 2-fold dilution of the sample are 100-10 µg/ml); in the experiment with Enterococcus from fish (Enterococcus Seriolicida HI), ≤10 (10-1 µg/ml); in the experiment with Enterococcus from fish (setting [5]), ≤10 (10-1 µg/ml); in the experiment with Enterococcus from fish (setting [6]) it was ≤10 (10-1 µg/ml). Besides, the IC with Enterococcus from fish (setting [7]), with Enterococcus from fish (setting [8]), in the experiment with Enterococcus from fish (setting [9]), in the experiment on Enterococcus from fish (setting [10]), with Enterococcus from fish (setting [11]) and with Enterococcus from fish (setting [12]) was ≤10 (10-1 µg/ml) throughout. The IC with Enterococcus from fish (setting [13]) is ≤10 (10-1 µg/ml).
In the case of `CC(Oc1cccc(Oc2ccc(C(F)(F)F)cc2Cl)c1)C(=O)C(C#N)c1ccc(Cl)cc1Cl` (stereo not drawn) [Compound No. 108, 4-[3-(2-chloro-4-trifluoromethyl-phenoxy)phenoxy)-2-(2,4-dichlorophenyl)-3-oxopentanonitrile], the MIC in experiment [1] is 1 to 10 µg/mL (≈ 1.89 to 18.9 µM); in the experiment with Pasteurella from fish it was 10 to 100 µg/mL (≈ 18.9 to 189 µM); against Enterococcus from fish, 1 to 10 µg/mL (≈ 1.89 to 18.9 µM); in experiment [2] it was 10 to 100 µg/mL (≈ 18.9 to 189 µM); in experiment [4], 1 to 10 µg/mL (≈ 1.89 to 18.9 µM). The IC is recorded as ≤100 (MIC-equivalent values obtained at the succesive 2-fold dilution of the sample are 100-10 µg/ml) in the experiment with Pasteurella from fish (Pasteurella piscicida KP94-04); ≤100 (MIC-equivalent values obtained at the succesive 2-fold dilution of the sample are 100-10 µg/ml) with Pasteurella from fish (Pasteurella piscicida KP94-05); ≤100 (MIC-equivalent values obtained at the succesive 2-fold dilution of the sample are 100-10 µg/ml) in the experiment on Pasteurella from fish (Pasteurella piscicida KP94-06); ≤10 (10-1 µg/ml) in the experiment with Enterococcus from fish (Enterococcus Seriolicida HI); ≤10 (10-1 µg/ml) in the experiment on Enterococcus from fish (setting [5]); ≤10 (10-1 µg/ml) in the experiment with Enterococcus from fish (setting [6]). In addition, the IC in the experiment on Enterococcus from fish (setting [7]), with Enterococcus from fish (setting [8]), in the experiment on Enterococcus from fish (setting [9]), in the experiment with Enterococcus from fish (setting [10]), in the experiment on Enterococcus from fish (setting [11]) and in the experiment on Enterococcus from fish (setting [12]) was ≤10 (10-1 µg/ml) in each case. In addition, in the experiment on Enterococcus from fish (setting [13]), the IC is on record as ≤10 (10-1 µg/ml).
Regarding `CC(Oc1cc(Oc2ccc(C(F)(F)F)cc2Cl)ccc1[N+](=O)[O-])C(=O)C(C#N)c1ccc(Cl)cc1Cl` (stereo not drawn) [Compound No. 116, 4-[5-(2-chloro-4-trifluoromethylphenoxy)-2-nitrophenoxy]-2-(2,4-dichlorophenyl)-3-oxopentanonitrile], the MIC in experiment [1] is 1 to 10 µg/mL (≈ 1.74 to 17.4 µM); against Pasteurella from fish it was 10 to 100 µg/mL (≈ 17.4 to 174 µM); against Enterococcus from fish, 1 to 10 µg/mL (≈ 1.74 to 17.4 µM); in experiment [2], 1 to 10 µg/mL (≈ 1.74 to 17.4 µM); in experiment [4] it was 1 to 10 µg/mL (≈ 1.74 to 17.4 µM). The IC is listed as ≤100 (MIC-equivalent values obtained at the succesive 2-fold dilution of the sample are 100-10 µg/ml) with Pasteurella from fish (Pasteurella piscicida KP94-04); ≤100 (MIC-equivalent values obtained at the succesive 2-fold dilution of the sample are 100-10 µg/ml) with Pasteurella from fish (Pasteurella piscicida KP94-05); ≤100 (MIC-equivalent values obtained at the succesive 2-fold dilution of the sample are 100-10 µg/ml) in the experiment with Pasteurella from fish (Pasteurella piscicida KP94-06); ≤10 (10-1 µg/ml) in the experiment with Enterococcus from fish (Enterococcus Seriolicida HI); ≤10 (10-1 µg/ml) in the experiment with Enterococcus from fish (setting [5]); ≤10 (10-1 µg/ml) with Enterococcus from fish (setting [6]). Also, the IC in the experiment on Enterococcus from fish (setting [7]), in the experiment with Enterococcus from fish (setting [8]), with Enterococcus from fish (setting [9]), in the experiment on Enterococcus from fish (setting [10]), in the experiment on Enterococcus from fish (setting [11]) and in the experiment with Enterococcus from fish (setting [12]) was ≤10 (10-1 µg/ml) throughout. Also, the IC in the experiment with Enterococcus from fish (setting [13]) is on record as ≤10 (10-1 µg/ml).
As for `CC(Oc1cc(Oc2ccc(C(F)(F)F)cc2Cl)ccc1[N+](=O)[O-])C(=O)C(C#N)C(=O)N1CCCCC1` (stereo not drawn) [compound 135], the minimum inhibitory concentration (MIC) (against Pasteurella from fish; with Enterococcus from fish; in experiment [2]) was 10 to 100 µg/mL (≈ 18.5 to 185 µM) in each case. Also, the IC with Enterococcus from fish (Enterococcus Seriolicida HI), with Enterococcus from fish (setting [5]), in the experiment with Enterococcus from fish (setting [6]), in the experiment with Enterococcus from fish (setting [7]), in the experiment with Enterococcus from fish (setting [8]) and in the experiment with Enterococcus from fish (setting [9]) was ≤100 (MIC-equivalent values obtained at the succesive 2-fold dilution of the sample are 100-10 µg/ml) each time. The IC in the experiment with Enterococcus from fish (setting [10]), with Enterococcus from fish (setting [11]), in the experiment with Enterococcus from fish (setting [12]) and with Enterococcus from fish (setting [13]) was ≤100 (MIC-equivalent values obtained at the succesive 2-fold dilution of the sample are 100-10 µg/ml) in each case.
As to `CC(Oc1cc(Oc2ccc(C(F)(F)F)cc2Cl)ccc1[N+](=O)[O-])C(=O)C(C#N)C(=O)N1CCOCC1` (stereo not drawn) [compound 137], the MIC in experiment [1], in experiment [2] and in experiment [4] was 10 to 100 µg/mL (≈ 18.5 to 185 µM) in each case.
Take `CC(Oc1cc(Oc2ccc(C(F)(F)F)cc2Cl)ccc1Cl)C(=O)C(C#N)c1ccc(Cl)cc1Cl` (stereo not drawn) [compound 151]: the MIC is ≤ 1 µg/mL in experiment [1], 10 to 100 µg/mL (≈ 17.8 to 178 µM) in experiment [2] and ≤ 1 µg/mL in experiment [4].
Regarding `CC(Oc1cc(Oc2ccc(C(F)(F)F)cc2Cl)ccc1Cl)C(=O)C(C#N)c1ccc(Cl)c(Cl)c1` (stereo not drawn) [compound 152], the MIC in experiment [1] is ≤ 1 µg/mL; in experiment [2], 1 to 10 µg/mL (≈ 1.78 to 17.8 µM); in experiment [4] it was ≤ 1 µg/mL.
As for `CC(Oc1cc(Oc2ccc(C(F)(F)F)cc2Cl)ccc1Cl)C(=O)C(C#N)c1ccccc1` (stereo not drawn) [compound 156], the MIC in experiment [2] was 10 to 100 µg/mL (≈ 20.2 to 202 µM); in experiment [4], 1 to 10 µg/mL (≈ 2.02 to 20.2 µM).
In the case of `CC(Oc1cc(Oc2ccc(C(F)(F)F)cc2Cl)ccc1Cl)C(=O)C(C#N)C(=O)N1CCCCC1` (stereo not drawn) [compound 170], the minimum inhibitory concentration (MIC) in experiment [1] lay in the range of 1 to 10 µg/mL (≈ 1.89 to 18.9 µM); in experiment [2], 10 to 100 µg/mL (≈ 18.9 to 189 µM); in experiment [4], 1 to 10 µg/mL (≈ 1.89 to 18.9 µM).
